Usually MIC stands for the lowest concentration found to suppress growth.

≈ marks a conversion by molar mass, not a printed value. A value given as a limit tells only on which side of the number the result lay.

Results on 7 compounds are retold here after patent US9650395B2, “Antibacterial compounds and methods for use” (PTC Therapeutics, Inc., priority 2011, dated 2017).

The subject of assay [1] is Acinetobacter baumannii (A. baumannii) BAA747. In words: Antibacterial activity, MIC, A. baumannii BAA747. The format is cell-based. Particulars: Acinetobacter baumannii; A. baumannii BAA747; read-out: MIC BAA747.
The test system of assay [2] is resistant A. baumannii MXX2240 (MDR clinical isolate). In words: Antibacterial activity, MIC, resistant A. baumannii MXX2240. The note with it: Acinetobacter baumannii, resistant A. baumannii MMX2240, MDR clinical isolate; read-out: MIC MMX2240. The format is cell-based, Acinetobacter baumannii.
Assay [3] relates to quinolone resistant E. coli LZ3111. Nature of the assay: Antibacterial activity, MIC, quinolone resistant E. coli LZ3111. Particulars: Escherichia coli, read-out: MIC, LZ3111. The format is cell-based, Escherichia coli. From the text: (§1) The antibacterial activity from a microbroth dilution method may be presented as the minimum inhibitory concentration (MIC in […]). The MIC value is the lowest concentration of a drug which prevents macroscopically visible bacterial growth under test conditions.
Mutations in these regions are known to confer a high level resistance to the quinolone class of antibiotics.

The subject of assay [4] is Gram-positive Staphylococcus aureus (S. aureus) 29213. In words: Antibacterial activity, microbroth dilution MIC, S. aureus 29213. The format is cell-based. The note with it: Staphylococcus aureus; S. aureus 29213, microbroth dilution; read-out: MIC, 29213. On the technique in general: In broth dilution the organism is exposed to a series of concentrations in liquid medium.

Assay [5] relates to resistant K. pneumoniae MXX1232 (MDR clinical isolate). Nature of the assay: Antibacterial activity, MIC, resistant K. pneumoniae MXX1232. The format is cell-based, Klebsiella pneumoniae. Particulars: Klebsiella pneumoniae; resistant K. pneumoniae MMX1232, MDR clinical isolate; read-out: MIC MMX1232.
Assay [6] has as its system Pseudomonas aeruginosa (P. aeruginosa) 27853. Nature of the assay: Antibacterial activity, MIC, P. aeruginosa 27853. The format is cell-based. The note with it: Pseudomonas aeruginosa, P. aeruginosa 27853; read-out: MIC 27853.
Excerpt: as §1
Antibacterial activity of test compounds against the Gram-negative bacterium Pseudomonas aeruginosa (P. aeruginosa) 27853 is shown in Table 5.

In assay [7] the test system is super sensitive Gram-negative Escherichia coli (E. coli) BAS849. In words: Antibacterial activity, microbroth dilution MIC, E. coli BAS849. Particulars: Escherichia coli; E. coli BAS849, microbroth dilution; read-out: MIC, BAS849. The format is cell-based.
Assay [8] relates to Klebsiella pneumoniae (K. pneumoniae) 35657. Nature of the assay: Antibacterial activity, MIC, K. pneumoniae 35657. The note with it: Klebsiella pneumoniae. The format is cell-based.
Assay [9] has as its system control Gram-negative E. coli 25922 strain. In words: Antibacterial activity, microbroth dilution MIC, E. coli 25922. The format is cell-based, Escherichia coli. Particulars: Escherichia coli; E. coli 25922, microbroth dilution; read-out: MIC, 25922.

Consider `CCc1cc(C(=O)O)c(=O)[nH]c1-c1ccc(N2CCC(c3ccccn3)C2)cc1` (stereo not drawn) [Cpd 227, 5-ethyl-2-oxo-6-{4-[3-(pyridin-2-yl)pyrrolidin-1-yl]phenyl}-1,2-dihydropyridine-3-carboxylic acid], for which the MIC is 1 to 3.5 µg/mL (≈ 2.57 to 8.99 µM) in assay [1]; 12.5 to 150 µg/mL (≈ 32.1 to 385 µM) in assay [2]; 12.5 to 150 µg/mL (≈ 32.1 to 385 µM) in assay [3]; 1 to 3.5 µg/mL (≈ 2.57 to 8.99 µM) in assay [4]; 12.5 to 150 µg/mL (≈ 32.1 to 385 µM) in [5]; 3.5 to 12.5 µg/mL (≈ 8.99 to 32.1 µM) in assay [6]. Also, the MIC in assay [7] is below 1 µg/mL; in assay [8], 3.5 to 12.5 µg/mL (≈ 8.99 to 32.1 µM); in assay [9], 1 to 3.5 µg/mL (≈ 2.57 to 8.99 µM).

Take `CCc1cc(C(=O)O)c(=O)[nH]c1-c1ccc(N2CCC(O)(CC)C2)cc1` (stereo not drawn) [Cpd 232, 5-ethyl-6-[4-(3-ethyl-3-hydroxypyrrolidin-1-yl)phenyl]-2-oxo-1,2-dihydropyridine-3-carboxylic acid]: the MIC in [1] lay in the range of 1 to 3.5 µg/mL (≈ 2.81 to 9.82 µM); in assay [2], 12.5 to 150 µg/mL (≈ 35.1 to 421 µM); in [3] it was 12.5 to 150 µg/mL (≈ 35.1 to 421 µM); in [4], 3.5 to 12.5 µg/mL (≈ 9.82 to 35.1 µM); in assay [5], 12.5 to 150 µg/mL (≈ 35.1 to 421 µM); in assay [6], 12.5 to 150 µg/mL (≈ 35.1 to 421 µM). In addition, the minimal inhibitory concentration (MIC) in assay [7] was below 1 µg/mL; in assay [8], 1 to 3.5 µg/mL (≈ 2.81 to 9.82 µM); in assay [9], 1 to 3.5 µg/mL (≈ 2.81 to 9.82 µM).

Consider `CCc1c(-c2ccc(N3CCC(c4ccccn4)C3)cc2)[nH]c(=O)c(C(=O)O)c1O` (stereo not drawn) [Cpd 286, 5-ethyl-4-hydroxy-2-oxo-6-{4-[3-(pyridin-2-yl)pyrrolidin-1-yl]phenyl}-1,2-dihydropyridine-3-carboxylic acid], for which the MIC in [1] fell in the range of 3.5 to 12.5 µg/mL (≈ 8.63 to 30.8 µM); in assay [2] it was 12.5 to 150 µg/mL (≈ 30.8 to 370 µM); in assay [3], 12.5 to 150 µg/mL (≈ 30.8 to 370 µM); in [4], 1 to 3.5 µg/mL (≈ 2.47 to 8.63 µM); in assay [5], 12.5 to 150 µg/mL (≈ 30.8 to 370 µM); in [6], 12.5 to 150 µg/mL (≈ 30.8 to 370 µM). The MIC in [7] was below 1 µg/mL; in assay [8] it was 12.5 to 150 µg/mL (≈ 30.8 to 370 µM); in [9], 1 to 3.5 µg/mL (≈ 2.47 to 8.63 µM).

On to `CCc1c(-c2ccc(N3CCC(O)(CC)C3)cc2)[nH]c(=O)c(C(=O)O)c1O` (stereo not drawn) [Cpd 288, 5-ethyl-6-[4-(3-ethyl-3-hydroxypyrrolidin-1-yl)phenyl]-4-hydroxy-2-oxo-1,2-dihydropyridine-3-carboxylic acid], for which the MIC in [1] was 1 to 3.5 µg/mL (≈ 2.69 to 9.4 µM); in assay [2], 1 to 3.5 µg/mL (≈ 2.69 to 9.4 µM); in [3], 3.5 to 12.5 µg/mL (≈ 9.4 to 33.6 µM); in assay [4], 1 to 3.5 µg/mL (≈ 2.69 to 9.4 µM); in [5], 12.5 to 150 µg/mL (≈ 33.6 to 403 µM); in assay [6] it was 3.5 to 12.5 µg/mL (≈ 9.4 to 33.6 µM). Moreover, the MIC was below 1 µg/mL in assay [7], 3.5 to 12.5 µg/mL (≈ 9.4 to 33.6 µM) in [8] and 1 to 3.5 µg/mL (≈ 2.69 to 9.4 µM) in assay [9].

For `CCc1c(-c2cnc(N(C)C)cn2)[nH]c(=O)c(C(=O)O)c1O` [Cpd 312, 6-(5-(dimethylamino)pyrazin-2-yl)-5-ethyl-4-hydroxy-2-oxo-1,2-dihydropyridine-3-carboxylic acid], the MIC in assay [1] was in the range of 3.5 to 12.5 µg/mL (≈ 11.5 to 41.1 µM); in [2] it was 12.5 to 150 µg/mL (≈ 41.1 to 493 µM); in assay [3], 12.5 to 150 µg/mL (≈ 41.1 to 493 µM); in assay [4] it was 12.5 to 150 µg/mL (≈ 41.1 to 493 µM); in [5], 12.5 to 150 µg/mL (≈ 41.1 to 493 µM); in assay [6] it was 12.5 to 150 µg/mL (≈ 41.1 to 493 µM). Further, the results for the MIC in assay [7], in [8] and in assay [9] were below 1 µg/mL, 3.5 to 12.5 µg/mL (≈ 11.5 to 41.1 µM) and 12.5 to 150 µg/mL (≈ 41.1 to 493 µM), respectively.

Regarding `CCc1c(-c2cnc(N3CCCC3)cn2)[nH]c(=O)c(C(=O)O)c1O` [Cpd 313, 5-ethyl-4-hydroxy-2-oxo-6-(5-(pyrrolidin-1-yl)pyrazin-2-yl)-1,2-dihydropyridine-3-carboxylic acid], the MIC lay in the range of 3.5 to 12.5 µg/mL (≈ 10.6 to 37.8 µM) in [1]; 12.5 to 150 µg/mL (≈ 37.8 to 454 µM) in assay [2]; 12.5 to 150 µg/mL (≈ 37.8 to 454 µM) in [3]; 12.5 to 150 µg/mL (≈ 37.8 to 454 µM) in [4]; 12.5 to 150 µg/mL (≈ 37.8 to 454 µM) in assay [5]; 12.5 to 150 µg/mL (≈ 37.8 to 454 µM) in assay [6]. For the same compound, the minimal inhibitory concentration (MIC) was below 1 µg/mL in assay [7], 3.5 to 12.5 µg/mL (≈ 10.6 to 37.8 µM) in assay [8] and 12.5 to 150 µg/mL (≈ 37.8 to 454 µM) in [9].

On to `CCc1c(-c2cnc(N3CCC(N(C)C)C3)cn2)[nH]c(=O)c(C(=O)O)c1O` (stereo not drawn) [Cpd 314, 6-(5-(3-(dimethylamino)pyrrolidin-1-yl)pyrazin-2-yl)-5-ethyl-4-hydroxy-2-oxo-1,2-dihydropyridine-3-carboxylic acid], for which the MIC in assay [1] was 12.5 to 150 µg/mL (≈ 33.5 to 402 µM); in assay [2], 12.5 to 150 µg/mL (≈ 33.5 to 402 µM); in [3], 3.5 to 12.5 µg/mL (≈ 9.37 to 33.5 µM); in assay [4], 12.5 to 150 µg/mL (≈ 33.5 to 402 µM); in assay [5] it was 12.5 to 150 µg/mL (≈ 33.5 to 402 µM); in [6] it was 12.5 to 150 µg/mL (≈ 33.5 to 402 µM). Also, the MIC in [7] lay in the range of 3.5 to 12.5 µg/mL (≈ 9.37 to 33.5 µM); in assay [8] it was 12.5 to 150 µg/mL (≈ 33.5 to 402 µM); in assay [9], 12.5 to 150 µg/mL (≈ 33.5 to 402 µM).
